Test results published in patent US20260232561A1, “PEPTIDE ACTIVATING RETINOIC ACID RECEPTOR, AND COSMETIC COMPOSITION CONTAINING SAME” (SUPADELIXIR INC., priority 2023, published 2026).

Columns and labels:
[1] = tested on: B16F10 cells (mouse melanocytes); test: inhibition of α-MSH-stimulated melanin synthesis in cells; assay type: cell-based; conditions: 72 hours; for Melanin amount (of Control): no treatment = 100; for increase in melanin induced by α-MSH stimulation: 100 nM α-MSH, peptide 1 and 10 μM
Description: • 1. […] Specifically, 1×10^5 B16F10 cells (mouse melanocytes) were seeded into each well of a 6-well microplate with DMEM serum medium. The cells were cultured in an incubator at a temperature of 37° C. and with 5% CO2 for 24 hours. […] The concentration of each peptide in the medium was set to 1 and 10 μM. […] Afterward, to measure the amount of extracellular melanin, the supernatant was taken, and the absorbance of free melanin in the medium was measured at a wavelength of 400 nm. To measure the amount of intracellular melanin, the cells were washed with PBS after removing the medium, and then the cells were lysed with 1 M NaOH at a temperature of 60° C. for 30 minutes, and the absorbance was measured at a wavelength of 400 nm. The amount of free melanin and intracellular melanin measured by absorbance were quantified, and the results are shown in Table 2. • 3.

RAR and RXR = test: in-situ proximity ligation assay (PLA) of physical binding between RAR and RXR in HaCaT cells; assay type: cell-based, human; conditions: peptide 1 and 10 μM, 30 minutes, compared to untreated control group (FIG. 1)
Description: • 1. Retinol regulates the transcription of target DNA by inducing the binding between Retinoic acid receptor (RAR) and Retinoid X Receptor (RXR). To confirm whether the peptides of Example 1 activate the binding between RXR/RAR, the effects of the peptides on the physical binding between RAR and RXR were evaluated using an in-situ proximity ligation assay (PLA) method. • 2. Specifically, 4.5×10^4 HaCaT cells (human keratinocytes) were seeded into each well of a 24-well microplate with DMEM serum medium. The cells were cultured in an incubator at a temperature of 37° C. and with 5% CO2 for 24 hours. Next, the cells were treated with each of the peptides of Example 1, and the cells were incubated under the same conditions for 30 minutes. The concentration of each peptide in the medium was set to 1 and 10 μM. The control group received no treatment. Afterward, the cells in each well were washed with PBS and fixed by treatment with 2% formaldehyde for 15 minutes, and then the cells were treated with 0.1% TritonX-100 for 5 minutes to increase antibody permeability into the cells. […] Afterward, the physical interaction of RAR and RXR antibodies was quantified by measuring luminescence signals (PLA signals) detected in each cell using a fluorescence microscope (Logosbio/CelenaS, Korea), and the results are shown in FIG. 1. • 4. […]

[2] = tested on: P53 and POLII (RNA Polymerase II); test: in-situ proximity ligation assay (PLA) of physical binding between P53 and POLII in HaCaT cells; assay type: cell-based, human; conditions: peptide 1 and 10 μM, 30 minutes, compared to untreated control group (FIG. 2)
Description: • 1. To confirm whether the peptides of Example 1 increase the transcriptional activity of P53, which was related to cell anti-aging, cells were treated with the peptides of Example 1, and then the effects of the peptides on the physical binding between P53 and POLII (RNA Polymerase II) was evaluated using an in-situ proximity ligation assay (PLA) method. • 2. Specifically, 4.5×10^4 HaCaT cells (human keratinocytes) were seeded into each well of a 24-well microplate with DMEM serum medium. The cells were cultured in an incubator at a temperature of 37° C. and with 5% CO2 for 24 hours. Next, the cells were treated with each of the peptides of Example 1, and the cells were incubated under the same conditions for 30 minutes. The concentration of each peptide in the medium was set to 1 and 10 μM. The control group received no treatment. Afterward, the cells in each well were washed with PBS and fixed by treatment with 2% formaldehyde for 15 minutes, and then the cells were treated with 0.1% TritonX-100 for 5 minutes to increase antibody permeability into the cells. […] Afterward, the physical interaction of P53 and POLII antibodies was quantified by measuring luminescence signals (PLA signals) detected in each cell using a fluorescence microscope (Logosbio/CelenaS, Korea), and the results are shown in FIG. 2. • 4. […]

human dermal fibroblasts = test: immunofluorescence analysis of intracellular collagen synthesis (anti-COL1A2); assay type: cell-based; conditions: peptide 1 and 10 μM, 24 hours, compared to untreated control group (FIG. 3)
Description: • 1. Immunofluorescence analysis was performed to evaluate the effects of the peptides of Example 1 on intracellular collagen synthesis. • 2. Specifically, 4.5×10^4 human dermal fibroblasts were seeded into each well of a 24-well microplate along with CEFOgro Human MSC Growth Medium). The cells were cultured in an incubator at a temperature of 37° C. and with 5% CO2 for 24 hours. Next, the cells were treated with each of the peptides of Example 1, and the cells were incubated under the same conditions for 24 hours. The concentration of each peptide in the medium was set to 1 and 10 μM. Out of two control groups, one received no treatment, and the other was treated with 1 μM retinol. The cells in each well were washed with PBS and fixed by treatment with 4% formaldehyde for 15 minutes, and then the cells were treated with 0.1% TritonX-100 for 5 minutes to increase antibody permeability into the cells. The cells were washed with PBS solution and treated with anti-COL1A2 polyclonal antibodies (Santa Cruz, CA, USA) for 1 hour. Next, the cells were treated with mouse anti-goat IgG-FITC for 40 minutes. To stain the cytoskeleton, the cells were treated with Phalloidin-Rhodamin for 40 minutes. After mounting with DAPI-added reagent for cell nucleus staining, the cells were observed using a fluorescence microscope (Logosbio/CelenaS, Korea) and quantified using a program (NIS-Eliments-3.1).

[3] = α-MSH (100 nM) + test substance 1 uM
[4] = α-MSH (100 nM) + test substance 10 uM

Row | Compound | Melanin amount (of Control) [1, 3] | physical binding between RAR and RXR (PLA signals) (RAR and RXR) | physical binding between P53 and POLII (PLA signals) [2] | collagen synthesis (human dermal fibroblasts) | increase in melanin induced by α-MSH stimulation [1] | Melanin amount (of Control) [1, 4]
1 | CC1=C(/C=C/C(C)=C/C=C/C(C)=C/CO)C(C)(C)CCC1 [Retinol, retinol, reference compound] | 114% |  |  |  |  | 
2 | Ile-Gln-Glu-Met (IQEM) [Raragin A] | 111% | increased | increased | significantly increased | reduced | 107%
3 | Thr-Val-Glu-Phe (TVEF) [Raragin B] | 109% | increased | increased | significantly increased | reduced | 106%
